Measured values: ChEMBL document CHEMBL1137901, “Biaryl guanidine inhibitors of in vitro HCV-IRES activity” (Bioorg Med Chem Lett, 2004)

Tests used:
Hepatitis C virus [1] = assay: In vitro inhibitory concentration against hepatitis C virus internal ribosome entry site (HCV-IRES) translation; type: functional, Hepacivirus hominis
Hepatitis C virus [2] = assay: Selectivity was determined as the ratio of IC50 of non-IRES to that of IC50 of HCV-IRES; type: functional, Hepacivirus hominis
[3] = In vitro inhibitory concentration against non internal ribosome entry site translation; type: functional

SMILES	IC50 (Hepatitis C virus [1]) [µM]	Selectivity (Hepatitis C virus [2])	IC50 [3] [µM]
Cc1cc(C)nc(/N=C(\N)NCCc2cccnc2)n1	32	4	–
Cc1cc(C)nc(/N=C(\N)NCCc2ccc([N+](=O)[O-])cc2)n1	54	1.5	–
Cc1ccnc(/N=C(\N)NCCc2ccccc2)n1	46	3.5	–
Cc1cc(C)nc(/N=C(\N)NCCc2ccc(C(=O)O)cc2)n1	> 200	–	> 200
Cc1cc(C)nc(/N=C(\N)NC[C@H](O)c2ccccc2)n1	75	>2.7	–
Cc1cc(C)nc(/N=C(\N)NC[C@@H](O)c2ccccc2)n1	9.7	>2.2	–
Cc1cc(C)nc(NC(=N)NCCc2ccccc2)c1	> 200	–	> 200
Cc1nc(/N=C(\N)NCCc2ccccc2)nc(C)c1O	19	3.6	–
Cc1cc(C)cc(NC(=N)NCCc2ccccc2)c1	> 200	–	> 200
Cc1cc(C)nc(/N=C(\N)NCCc2ccncc2)n1	55	>3.6	–
Cc1cc(C)nc(/N=C(\N)NCC(c2ccccc2)c2ccccc2)n1	75	>2.7	–
Cc1cc(C)nc(/N=C(\N)NCCc2ccc(Br)cc2)n1	50	2.5	–
Cc1cc(C)nc(/N=C(\N)NCCc2ccccc2C)n1	15	1.8	–
COC(=O)c1ccc(CC/N=C(\N)Nc2nc(C)cc(C)n2)cc1	29	3.4	–
Cc1nc(/N=C(\N)NCCc2ccccc2)nc(C)c1Br	8.1	2.2	–
Cc1cc(C)nc(/N=C(\N)NCCc2ccc(C(C)(C)C)cc2)n1	> 200	–	> 200
COc1ccc(CCNC(=N)Nc2nc(C)cc(C)n2)cc1	25	4.1	–
Cc1cc(C)nc(/N=C(\N)NCc2cccs2)n1	38	1.3	–
Cc1cccc(CC/N=C(\N)Nc2nc(C)cc(C)n2)c1	23	2.8	–

SMILES	IC50 (Hepatitis C virus [1]) [µM]	Selectivity (Hepatitis C virus [2])	IC50 [3] [µM]
Cc1cc(C)nc(/N=C(\N)NCCc2ccc(OC(F)(F)F)cc2)n1	92	>2.2	–
COc1cc(OC)nc(/N=C(\N)NCCc2ccccc2)n1	35	5	–
Cc1cc(C)nc(/N=C(\N)NCCc2ccc(F)cc2)n1	23	4.1	–
Cc1cc(C)nc(/N=C(\N)NCCc2ccc(Cl)cc2)n1	24	2.3	–
COc1c(C)nc(/N=C(\N)NCCc2ccccc2)nc1C	9.9	3.4	–
Cc1cc(C)nc(/N=C(\N)NCCc2ccccc2Cl)n1	16	1.8	–
Cc1nc(/N=C(\N)NCCc2ccccc2)nc(C)c1OCCCN(C)C	2.1	2	–
Cc1cc(C)nc(/N=C(\N)NCCc2cccc(Cl)c2)n1	12	1.8	–
COc1cc(CC/N=C(\N)Nc2nc(C)cc(C)n2)cc(OC)c1	26	>7.7	–
COc1ccc(CC/N=C(\N)Nc2nc(C)cc(C)n2)c(OC)c1	68	2.6	–
Cc1ccc(CC/N=C(\N)Nc2nc(C)cc(C)n2)cc1	34	3.8	–
Cc1cc(C)nc(/N=C(\N)NCCc2ccc(C(F)(F)F)cc2)n1	82	2.2	–
COc1ccccc1CC/N=C(\N)Nc1nc(C)cc(C)n1	13	1.8	–
Cc1cc(C)nc(/N=C(\N)NCCc2ccc3ccccc3n2)n1	23	3.7	–
CCc1cc(CC)nc(/N=C(\N)NCCc2ccccc2)n1	13	2.2	–
Cc1ccc(CC/N=C(\N)Nc2nc(C)cc(C)n2)c(C)c1	23	3.3	–
Cc1cc(C)nc(/N=C(\N)NCc2ccco2)n1	97	>2	–
COc1cc(OC)c(CC/N=C(\N)Nc2nc(C)cc(C)n2)c(OC)c1	100	>2	–
Cc1cc(C)nc(/N=C(\N)NCCc2ccccn2)n1	39	2.4	–

SMILES	IC50 (Hepatitis C virus [1]) [µM]	Selectivity (Hepatitis C virus [2])	IC50 [3] [µM]
Cc1cc(C)nc(N/C(N)=N/CCc2ccc(C(C)C)cc2)n1	104	>1.9	–
COc1ccc(OC)c(CC/N=C(\N)Nc2nc(C)cc(C)n2)c1	94	>2.1	–
Cc1cc(C)nc(NC(=N)N(C)CCc2ccccc2)n1	> 200	–	> 200
CCOc1ccc(CC/N=C(\N)Nc2nc(C)cc(C)n2)cc1	82	>2.4	–
Cc1cc(C)nc(NC(=O)NCCc2ccccc2)n1	> 200	–	> 200
Cc1cc(C)nc(/N=C(\S)NCCc2ccccc2)n1	> 200	–	> 200
Cc1cc(C)nc(N/C(N)=N/C[C@H](C)c2ccccc2)n1	35	5.7	–
Cc1cc(C)nc(N(C)C(=N)NCCc2ccccc2)n1	> 200	–	> 200
Cc1cc(C)nc(/N=C(\N)NCCc2ccc(-c3ccccc3)cc2)n1	80	>2.5	–
Cc1cc(C)nc(/N=C(\N)NCCc2ccc(O)cc2)n1	49	3	–
Cc1ccc(C)c(CC/N=C(\N)Nc2nc(C)cc(C)n2)c1	35	5.7	–
Cc1cc(C)nc(/N=C(\N)NCc2cc3ccccc3o2)n1	25	2.8	–
Cc1nc(/N=C(\N)NCCc2ccccc2)nc(C)c1C	4.2	1.3	–
Cc1cc(C)nc(/N=C(\N)NCCc2ccccc2)n1	9.6	2.4	–
Cc1cc(C)nc(/N=C(\N)NCCCc2ccccc2)n1	150	1.3	–
Cc1cc(C)nc(N/C(N)=N/C[C@@H](C)c2ccccc2)n1	21	1.9	–
Cc1cc(C)nc(/N=C(\N)NCc2ccccc2)n1	7.6	2.6	–
Cc1cc(C)nc(/N=C(\N)NCCc2ccc(N)cc2)n1	61	2.5	–
Cc1cc(C)nc(/N=C(\N)NCc2nc3ccccc3[nH]2)n1	23	1.7	–
